In US10532985B2, “Heterocycle and carbocycle derivatives having TRKA inhibitory activity” (Shionogi & Co., Ltd., priority 2014, dated 2020):
Like-named read-outs stand apart in the source and are kept apart here.

Molecular target: T1, human TrkA (Homo sapiens, UniProt P04629)
T1 construct: purchased Lifetechnologies PV3144
Assay: Test Example 2: Human TrkA Inhibition Assay
Format: biochemical
Experimental: After the incubation for 90 min at room temperature, ten μL of termination buffer (100 mmol/L HEPES, 40 mmol/L ethylenediaminetetraacetic acid (EDTA), 10 mmol/L magnesium chloride, 0.003 vol % Brij-35, 0.004 vol % Tween20, 1 mmol/L DTT and 0.16 vol % Coating Reagent 3) was added in each well to stop the enzyme reaction. Fluorescent intensities (FI) of phosphorylated and non-phosphorylated fluorescent substrates were measured by LabChip EZReader II (Caliper LifeSciences, Inc.) and conversion ratio (CR) was calculated by the following formula-1. The CR in the well applied with DMSO alone was used as a negative control and the CR in the well without applying TrkA was used as a positive control. The inhibitory effect of each compound on TrkA phosphorylation was calculated by the following formula-2. CR (%)=(FI of phosphorylated substrate/(FI of phosphorylated substrate+FI of non-phosphorylated substrate))×100 (Formula-1) Inhibitory effect on TrkA phosphorylation (%)=(1−(CR in compound treated well−CR in positive control)/(CR in negative control−CR in positive control))×100. (Formula-2)

[1] = human TrkA inhibition, Test Example 2, class symbols A/B/C, read-out: IC50_nM
[2] = Test Example 2, human TrkA 2.5 nmol/L, ATP 500 μmol/L, 90 min at room temperature, read-out: TrkA inhibitory activity IC50

T1 sequence (P04629 33-796): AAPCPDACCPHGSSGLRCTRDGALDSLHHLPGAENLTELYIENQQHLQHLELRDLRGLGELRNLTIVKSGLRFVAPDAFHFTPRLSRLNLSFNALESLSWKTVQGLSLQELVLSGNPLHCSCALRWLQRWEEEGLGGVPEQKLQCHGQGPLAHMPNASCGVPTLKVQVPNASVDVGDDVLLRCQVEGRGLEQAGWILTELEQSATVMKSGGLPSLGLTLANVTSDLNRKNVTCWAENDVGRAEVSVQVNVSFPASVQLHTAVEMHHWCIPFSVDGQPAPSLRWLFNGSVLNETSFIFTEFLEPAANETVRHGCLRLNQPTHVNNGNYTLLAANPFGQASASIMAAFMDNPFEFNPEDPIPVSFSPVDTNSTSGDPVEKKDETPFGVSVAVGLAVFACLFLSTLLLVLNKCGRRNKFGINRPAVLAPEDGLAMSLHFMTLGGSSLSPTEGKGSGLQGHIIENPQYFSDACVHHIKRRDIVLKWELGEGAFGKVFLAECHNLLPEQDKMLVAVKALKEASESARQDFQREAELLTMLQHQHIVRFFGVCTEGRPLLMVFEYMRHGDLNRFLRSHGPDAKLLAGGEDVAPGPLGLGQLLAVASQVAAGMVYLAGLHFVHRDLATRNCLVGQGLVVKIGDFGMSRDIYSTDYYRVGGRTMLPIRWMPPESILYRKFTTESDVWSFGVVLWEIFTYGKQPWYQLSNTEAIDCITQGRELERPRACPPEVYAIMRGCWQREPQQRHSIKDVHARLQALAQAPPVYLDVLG

Row | SMILES | IC50 [1] [nM] | other results
1 | Cc1c(-c2cnn(C)c2)nn(-c2ccccc2)c1NC(=O)N[C@@H]1CN(C(=O)OC(C)(C)C)C[C@H]1c1ccccc1 (racemic) [Compound I-5] | > 1000 | 
2 | COCCN1C[C@H](NC(=O)Nc2c(C)c(-c3cnn(C)c3)nn2-c2ccccc2)[C@H](c2ccc(F)c(F)c2)C1 (racemic) [Compound I-6] | > 1000 | 
3 | COCCN1C[C@@H](NC(=O)Nc2c(C)c(-c3cnn(C)c3)nn2-c2ccccc2)[C@@]2(CCc3ccccc32)C1 (racemic) [Compound I-7] | > 1000 | 
4 | COCCN1C[C@@H](NC(=O)Nc2c(C)c(-c3cnn(C)c3)nn2-c2ccccc2)[C@H](C2CCCCC2)C1 (racemic) [Compound I-9] | 100 to 1000 | 
5 | COCCN1C[C@@H](NC(=O)Nc2c(C)c(OCC(C)(C)O)nn2-c2ccccc2)[C@H](C2CCCCC2)C1 (racemic) [Compound I-10] | > 1000 | 
6 | Cc1c(-c2cnn(C)c2)nn(-c2ccccc2)c1NC(=O)N[C@@H]1CN(Cc2ccccc2)[C@H]1c1ccccc1 (racemic) [Compound I-11] | > 1000 | 
7 | COCCN1[C@@H]2CCC[C@H]1[C@@H](c1ccc(F)c(F)c1)[C@@H]2NC(=O)Nc1c(C)c(-c2cnn(C)c2)nn1-c1ccccc1 (racemic) [Compound I-12] | > 1000 | 
8 | Cc1c(-c2cnn(C)c2)nn(-c2ccccc2)c1NC(=O)N[C@@H]1CCC[C@H]1c1ccccc1 (racemic) [Compound I-13] | > 1000 | 
9 | COCCN1C[C@@H](CC(=O)Nc2c(C)c(-c3cnn(C)c3)nn2-c2ccccc2)[C@H](c2ccc(F)c(F)c2)C1 (racemic) [Compound I-15] |  | IC50 [2]: 143 nM
10 | COCCN1C[C@@H](N(C)C(=O)Nc2c(C)c(-c3cnn(C)c3)nn2-c2ccccc2)[C@H](c2ccccc2)C1 (racemic) [Compound I-17] | > 1000 | 
11 | Cc1c(-c2cnn(C)c2)nn(-c2ccccc2)c1NC(=O)N[C@@H]1CN(Cc2ccccc2)C[C@H]1C1CCCCC1 (racemic) [Compound I-18] | > 1000 | 
12 | COCCN1C[C@@H](NC(=O)Nc2c(C)c(-c3cnn(C)c3)nn2-c2ccccc2)[C@H](c2cccc(C(=O)OC)c2)C1 (racemic) [Compound I-19] | > 1000 | 
13 | COCCN1C[C@@H](NC(=O)Nc2c(C)c(-c3cnn(C)c3)nn2-c2ccccc2)[C@H](c2ccc(C(=O)OC)cc2)C1 (racemic) [Compound I-20] | 100 to 1000 | 
14 | COCCN1C[C@@H](NC(=O)Nc2c(C)c(-c3cnn(C)c3)nn2-c2ccccc2)[C@H](c2cccc(C(N)=O)c2)C1 (racemic) [Compound I-21] | > 1000 | 
15 | COCCN1[C@@H]2CC[C@H]1[C@@H](c1ccc(F)c(F)c1)[C@@H]2NC(=O)Nc1c(C)c(-c2cnn(C)c2)nn1-c1ccccc1 (racemic) [Compound I-30] | > 1000 | 
16 | COCCN1C[C@@H](NC(=O)Nc2c(C)c(-c3cnn(C)c3)nn2-c2ccccc2)[C@H](C2CCC(F)(F)CC2)C1 (racemic) [Compound I-33] | 100 to 1000 | 
17 | COCCN1C[C@@H](NC(=O)Nc2c(C)c(OCC(C)(C)O)nn2-c2ccccc2)[C@H](C2CCC(F)(F)CC2)C1 (racemic) [Compound I-34] | > 1000 | 
18 | Cc1c(-c2cnn(C)c2)nn(-c2ccccc2)c1NC(=O)N[C@@H]1CN(CC(F)(F)F)C(=O)[C@H]1c1ccccc1 (racemic) [Compound I-44] |  | IC50 [2]: 700 nM
19 | COC(=O)[C@@H]1C[C@@H](NC(=O)Nc2c(C)c(-c3cnn(C)c3)nn2-c2ccccc2)[C@H](c2ccc(F)c(F)c2)N1 (racemic) [Compound I-47] | > 1000 | 
20 | COCCN1C[C@@H](NC(=O)Nc2c(C)c(-c3cnn(C)c3)nn2-c2ccccc2)[C@H](c2cccc(-c3ccccc3)c2)C1 (racemic) [Compound I-48] | < 100 | 
21 | COCCN1C[C@@H](NC(=O)Nc2c(C)c(-c3cnn(C)c3)nn2-c2ccccc2)[C@H](c2cccc(/C=C/c3ccccc3)c2)C1 (racemic) [Compound I-49] | < 100 | 
22 | COCCN1C[C@@H](NC(=O)Nc2c(C)c(-c3cnn(C)c3)nn2-c2ccccc2)[C@H](c2cccc(-c3ccc(C#N)cc3)c2)C1 (racemic) [Compound I-50] | < 100 | 
23 | COCCN1C[C@@H](NC(=O)Nc2c(C)c(-c3cnn(C)c3)nn2-c2ccccc2)[C@H](c2cccc(-c3ccoc3)c2)C1 (racemic) [Compound I-51] | < 100 | 
24 | COCCN1C[C@@H](NC(=O)Nc2c(C)c(-c3cnn(C)c3)nn2-c2ccccc2)[C@H](c2cccc(-c3cccc(C#N)c3)c2)C1 (racemic) [Compound I-52] | 100 to 1000 | 
25 | COCCN1C[C@@H](NC(=O)Nc2c(C)c(-c3cnn(C)c3)nn2-c2ccccc2)[C@H](c2cccc(-c3ccc(C#N)s3)c2)C1 (racemic) [Compound I-53] | > 1000 | 

Row | SMILES | IC50 [1] [nM] | other results
26 | COCCN1C[C@@H](NC(=O)Nc2c(C)c(-c3cnn(C)c3)nn2-c2ccccc2)[C@H](c2cccc(-c3ccc(C(=O)OC)cc3)c2)C1 (racemic) [Compound I-54] | > 1000 | 
27 | COCCN1C[C@@H](NC(=O)Nc2c(C)c(-c3cnn(C)c3)nn2-c2ccccc2)[C@H](c2cccc(-c3ccccc3C#N)c2)C1 (racemic) [Compound I-55] | 100 to 1000 | 
28 | COCCN1C[C@@H](NC(=O)Nc2c(C)c(-c3cnn(C)c3)nn2-c2ccccc2)[C@H](c2cccc(-c3cccnc3)c2)C1 (racemic) [Compound I-56] | > 1000 | 
29 | COCCN1C[C@@H](NC(=O)Nc2c(C)c(-c3cnn(C)c3)nn2-c2ccccc2)[C@H](c2cccc(-c3cccc(C(=O)OC)c3)c2)C1 (racemic) [Compound I-57] | 100 to 1000 | 
30 | COCCN1C[C@@H](NC(=O)Nc2c(C)c(-c3cnn(C)c3)nn2-c2ccccc2)[C@H](c2cccc(C3=CCCCC3)c2)C1 (racemic) [Compound I-58] | > 1000 | 
31 | COCCN1C[C@@H](NC(=O)Nc2c(C)c(-c3cnn(C)c3)nn2-c2ccccc2)[C@H](c2cccc(-c3cncnc3)c2)C1 (racemic) [Compound I-59] | > 1000 | 
32 | COCCN1C[C@@H](NC(=O)Nc2c(C)c(-c3cnn(C)c3)nn2-c2ccccc2)[C@H](c2cccc(-c3ccncc3)c2)C1 (racemic) [Compound I-60] | > 1000 | 
33 | C=C1C[C@@H](NC(=O)Nc2c(C)c(-c3cnn(C)c3)nn2-c2ccccc2)[C@H](c2ccc(F)cc2)C1 (racemic) [Compound I-65] | < 100 | 
34 | Cc1c(-c2cnn(C)c2)nn(-c2ccccc2)c1NC(=O)N[C@@H]1CN(CO)C[C@H]1c1ccc(F)c(F)c1 (racemic) [Compound I-67] | > 1000 | 
35 | Cc1c(-c2cnn(C)c2)nn(-c2ccccc2)c1NC(=O)N[C@H]1[C@H](c2ccc(F)c(F)c2)[C@@H]2CC[C@H]1N2 (racemic) [Compound I-68] | > 1000 | 
36 | CCN1[C@@H]2CC[C@H]1[C@@H](c1ccc(F)c(F)c1)[C@@H]2NC(=O)Nc1c(C)c(-c2cnn(C)c2)nn1-c1ccccc1 (racemic) [Compound I-69] | > 1000 | 
37 | COCCCN1[C@@H]2CC[C@H]1[C@@H](c1ccc(F)c(F)c1)[C@@H]2NC(=O)Nc1c(C)c(-c2cnn(C)c2)nn1-c1ccccc1 (racemic) [Compound I-70] | > 1000 | 
38 | Cc1c(-c2cnn(C)c2)nn(-c2ccccc2)c1NC(=O)N[C@H]1[C@H](c2ccc(F)c(F)c2)[C@@H]2CC[C@H]1N2Cc1csnn1 (racemic) [Compound I-71] |  | IC50: 300 nM
39 | COCCN1C[C@@H](NC(=O)Nc2c(C)c(-c3cnn(C)c3)nn2-c2ccccc2)[C@H](c2cccc3c2OCO3)C1 (racemic) [Compound I-75] | 100 to 1000 | 
40 | Cc1c(-c2cnn(C)c2)nn(-c2ccccc2)c1NC(=O)N[C@@H]1C[C@@H](C)N(C(=O)OC(C)(C)C)[C@H]1c1ccc(F)c(F)c1 (racemic) [Compound I-76] | > 1000 | 
41 | Cc1c(-c2cnn(C)c2)nn(-c2ccccc2)c1NC(=O)N[C@@H]1C[C@@H](C)N[C@H]1c1ccc(F)c(F)c1 (racemic) [Compound I-77] | > 1000 | 
42 | COCCN1C[C@@H](NC(=O)Nc2c(C)c(-c3cnn(C)c3)nn2-c2ccccc2)[C@H](c2cccc(C(=O)O)c2)C1 (racemic) [Compound I-82] | > 1000 | 
43 | COCCN1C[C@@H](NC(=O)Nc2c(C)c(-c3cnn(C)c3)nn2-c2ccccc2)[C@H](c2ccc(C(=O)O)cc2)C1 (racemic) [Compound I-83] | > 1000 | 
44 | COCCN1C[C@@H](NC(=O)Nc2c(C)c(-c3cnn(C)c3)nn2-c2ccccc2)[C@H](c2ccc3ccccc3c2)C1 (racemic) [Compound I-104] | < 100 | 
45 | COCCN1C[C@@H](NC(=O)Nc2c(C)c(-c3cnn(C)c3)nn2-c2ccccc2)[C@H](c2ccc3c(c2)OCCO3)C1 (racemic) [Compound I-128] | 100 to 1000 | 
46 | COCCN1C[C@@H](NC(=O)Nc2c(C)c(-c3cnn(C)c3)nn2-c2ccccc2)[C@H](c2cc3ccccc3o2)C1 (racemic) [Compound I-134] | 100 to 1000 | 
47 | C=C1C[C@@H](NC(=O)Nc2c(C)c(-c3cnn(C)c3)nn2-c2ccccc2)[C@H](c2ccc(F)c(F)c2)C1 (racemic) [Compound I-135] | 100 to 1000 | 
48 | COCCN1C[C@@H](NC(=O)Nc2c(C)c(-c3cnn(C)c3)nn2-c2ccccc2)[C@H](c2ccc3oc(=O)[nH]c3c2)C1 (racemic) [Compound I-149] | > 1000 | 
49 | COCCN1C[C@@H](NC(=O)Nc2c(C)c(-c3cnn(C)c3)nn2-c2ccccc2)[C@H](c2ccc3cccnc3c2)C1 (racemic) [Compound I-150] | > 1000 | 
50 | COCCN1C[C@@H](NC(=O)Nc2c(C)c(-c3cnn(C)c3)nn2-c2ccccc2)[C@H](c2nc3ccccc3s2)C1 (racemic) [Compound I-153] | > 1000 | 
